Calls of active or inactive are those of the source.
Legend:
[1] = biological target: T1, Replicative DNA helicase DnaB (Mycobacterium tuberculosis, UniProt P9WMR3); test: DnaB intein splicing inhibitors, dose response, biochemical, cell-free fluorescence (AID 449749); type: functional
T1 sequence (P9WMR3 whole entry): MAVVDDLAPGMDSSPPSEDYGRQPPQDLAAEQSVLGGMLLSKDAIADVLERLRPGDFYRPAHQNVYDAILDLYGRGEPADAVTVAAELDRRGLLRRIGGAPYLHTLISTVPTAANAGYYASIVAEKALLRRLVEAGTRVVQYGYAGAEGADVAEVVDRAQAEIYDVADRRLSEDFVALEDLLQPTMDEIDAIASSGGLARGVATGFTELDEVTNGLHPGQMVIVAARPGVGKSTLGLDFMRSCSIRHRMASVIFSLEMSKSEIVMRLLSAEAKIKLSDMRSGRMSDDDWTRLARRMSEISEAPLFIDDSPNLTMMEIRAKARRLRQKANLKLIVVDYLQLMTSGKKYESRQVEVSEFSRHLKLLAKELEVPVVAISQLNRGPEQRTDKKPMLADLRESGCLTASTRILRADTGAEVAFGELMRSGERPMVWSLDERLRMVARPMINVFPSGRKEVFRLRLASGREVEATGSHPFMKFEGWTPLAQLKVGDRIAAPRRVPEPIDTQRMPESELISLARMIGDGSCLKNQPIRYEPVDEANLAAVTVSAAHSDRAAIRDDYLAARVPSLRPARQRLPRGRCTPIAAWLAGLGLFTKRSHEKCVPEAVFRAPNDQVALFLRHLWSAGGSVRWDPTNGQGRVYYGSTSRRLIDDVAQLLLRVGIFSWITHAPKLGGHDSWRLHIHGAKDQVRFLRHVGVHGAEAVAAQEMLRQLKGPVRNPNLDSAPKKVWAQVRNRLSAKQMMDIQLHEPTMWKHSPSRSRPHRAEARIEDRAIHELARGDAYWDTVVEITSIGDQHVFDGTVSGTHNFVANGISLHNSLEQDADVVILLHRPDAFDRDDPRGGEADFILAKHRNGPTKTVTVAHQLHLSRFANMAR

Protein RecA = biological target: T2, Protein RecA (Mycobacterium tuberculosis, UniProt P9WHJ3); test: Fluorescence Cell-Free Homogeneous Dose Retest to Identify Inhibitors of RecA-Intein Splicing Activity. [Related pubchem assays (depositor defined):AID2097, AID2223, AID489010, AID492950]; type: functional
T2 sequence (P9WHJ3 whole entry): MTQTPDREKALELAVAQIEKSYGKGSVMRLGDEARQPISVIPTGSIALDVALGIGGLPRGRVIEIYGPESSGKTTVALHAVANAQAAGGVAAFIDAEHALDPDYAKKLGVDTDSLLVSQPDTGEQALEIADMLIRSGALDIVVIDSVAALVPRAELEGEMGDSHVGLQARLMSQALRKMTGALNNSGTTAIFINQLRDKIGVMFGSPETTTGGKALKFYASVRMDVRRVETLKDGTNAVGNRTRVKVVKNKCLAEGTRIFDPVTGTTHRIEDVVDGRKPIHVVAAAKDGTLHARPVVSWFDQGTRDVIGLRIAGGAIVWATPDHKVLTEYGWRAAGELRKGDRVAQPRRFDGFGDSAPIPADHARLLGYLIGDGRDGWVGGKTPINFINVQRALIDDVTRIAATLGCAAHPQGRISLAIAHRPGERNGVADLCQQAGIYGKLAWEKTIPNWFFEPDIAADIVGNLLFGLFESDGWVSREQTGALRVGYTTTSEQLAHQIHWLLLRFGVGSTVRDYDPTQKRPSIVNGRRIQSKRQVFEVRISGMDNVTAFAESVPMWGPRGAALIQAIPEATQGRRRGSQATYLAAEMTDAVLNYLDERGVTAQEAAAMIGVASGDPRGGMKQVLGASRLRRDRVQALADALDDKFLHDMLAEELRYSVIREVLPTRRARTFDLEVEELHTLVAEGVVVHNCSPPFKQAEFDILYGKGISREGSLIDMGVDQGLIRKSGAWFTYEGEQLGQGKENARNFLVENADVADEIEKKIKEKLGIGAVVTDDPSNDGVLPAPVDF

[2] = tested on: Streptococcus sp. 'group A'; test: Streptococcus pyogenes SK(-)GAS viability under kanamycin – luminescence, BacTiterGlo, confirmation, counter-screen for streptokinase expression inhibitor project, dose response (AID 1900); type: functional, organism-based
[3] = biological target: T3, Apoptotic protease-activating factor 1 (Homo sapiens, UniProt O14727); type: functional
T3 sequence (O14727 whole entry): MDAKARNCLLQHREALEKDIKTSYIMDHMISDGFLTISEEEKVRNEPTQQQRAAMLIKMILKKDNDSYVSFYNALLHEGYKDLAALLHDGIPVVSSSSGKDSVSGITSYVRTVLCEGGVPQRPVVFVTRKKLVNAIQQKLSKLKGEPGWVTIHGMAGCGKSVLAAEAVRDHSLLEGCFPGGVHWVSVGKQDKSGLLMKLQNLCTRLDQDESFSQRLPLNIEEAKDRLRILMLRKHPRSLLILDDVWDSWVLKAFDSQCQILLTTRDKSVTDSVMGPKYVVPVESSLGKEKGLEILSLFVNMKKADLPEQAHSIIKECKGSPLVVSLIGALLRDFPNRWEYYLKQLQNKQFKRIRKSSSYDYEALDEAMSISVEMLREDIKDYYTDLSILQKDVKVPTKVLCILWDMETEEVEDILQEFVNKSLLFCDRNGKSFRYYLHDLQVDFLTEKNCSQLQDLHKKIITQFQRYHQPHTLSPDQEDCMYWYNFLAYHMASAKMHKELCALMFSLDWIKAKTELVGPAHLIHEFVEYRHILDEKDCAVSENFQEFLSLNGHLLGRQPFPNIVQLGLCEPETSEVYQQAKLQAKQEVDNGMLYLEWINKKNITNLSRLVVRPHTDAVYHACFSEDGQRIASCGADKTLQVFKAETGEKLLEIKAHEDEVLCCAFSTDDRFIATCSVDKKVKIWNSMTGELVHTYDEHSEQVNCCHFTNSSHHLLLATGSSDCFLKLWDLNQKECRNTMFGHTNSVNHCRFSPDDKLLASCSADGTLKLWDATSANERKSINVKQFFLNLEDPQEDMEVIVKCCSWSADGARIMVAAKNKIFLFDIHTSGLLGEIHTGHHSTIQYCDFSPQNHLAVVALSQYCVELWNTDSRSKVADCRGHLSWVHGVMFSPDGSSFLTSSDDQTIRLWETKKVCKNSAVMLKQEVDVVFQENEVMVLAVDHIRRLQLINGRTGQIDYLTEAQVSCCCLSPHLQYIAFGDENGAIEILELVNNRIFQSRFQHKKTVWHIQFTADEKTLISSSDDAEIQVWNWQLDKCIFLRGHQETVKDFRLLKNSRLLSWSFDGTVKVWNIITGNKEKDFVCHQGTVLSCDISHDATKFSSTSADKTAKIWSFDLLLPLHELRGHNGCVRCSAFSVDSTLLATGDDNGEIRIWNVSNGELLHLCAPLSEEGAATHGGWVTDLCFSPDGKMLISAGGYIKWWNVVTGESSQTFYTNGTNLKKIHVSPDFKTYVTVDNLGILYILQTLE

| Compound | AC50 [1] | EC50 (Protein RecA) | EC50 [2] | IC50 [3] |
| --- | --- | --- | --- | --- |
| O=C(NCCc1ccccc1)C(c1cccs1)N(C(=O)CCl)c1ccc(Cl)cc1 (stereo not given) | 1.49 µM (active) | 0.233 µM (active) |  |  |
| COc1cc(/C=C/c2cc[n+](C)cc2)ccc1OCC(=O)Nc1ccc(Cl)c(Cl)c1 | > 380 µM (inactive) | 17.2 µM (active) | 12.7 µM (active) | 22.6 µM (active) |
| CCCCCCCCCC[N+](C)(C)CC/C=C1/c2ccccc2Sc2ccc(Cl)cc21 | > 380 µM (inconclusive) | 5.8 µM (active) | 1.75 µM (active) | 10.6 µM (active) |

Reference: ChEMBL document CHEMBL1201862, “PubChem BioAssay data set” (2004)
